Legend:
S. pneumoniae D39V [1] = assay: Bliss interaction score (quartile over a dose matrix) (fitness difference); higher = more antagonism (negative = synergy)
Method in brief: (§1)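 Fitness was defined as normalised growth: OD595 at the start of stationary phase divided by the plate's robust no-drug mean and capped at 1. Single-drug fitness was inferred from combination measurements. The Bliss score is observed fitness minus the product of the single-drug values, summarised by quartiles across technical, biological and donor/recipient replicates.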

S. aureus DSM 20231 [2] = assay: as above
Method in brief: as §1

B. subtilis 168 = assay: as above
Method in brief: as §1

S. aureus Newman [3] = assay: as above
Method in brief: as §1

S. pneumoniae D39V [4] = assay: fitness (endpoint OD595 vs no drug) (fraction); higher = more growth
Method in brief: (§2)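 Bacterial fitness was scored as optical density at the stationary-phase transition relative to the robust mean of no-drug control wells. Scores are capped at 1. The growth data were OD595 readings every 30 min for 14 h at 37 °C, background-subtracted against the first reading, from 384-well plates inoculated at OD595 0.01 in TSB, LB Lennox or CY.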

S. aureus DSM 20231 [5] = assay: as above
Method in brief: as §2

S. aureus Newman [6] = assay: as above
Method in brief: as §2
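Throughout, for Bliss interaction score (quartile over a dose matrix): first quartile when negative (synergy) and third quartile when positive (antagonism).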
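Throughout, for fitness (endpoint OD595 vs no drug): OD595 on entry to stationary phase over no-drug wells; at most 1.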

CN[C@H](CC(C)C)C(=O)N[C@H]1C(=O)N[C@@H](CC(N)=O)C(=O)N[C@H]2C(=O)N[C@H]3C(=O)N[C@H](C(=O)N[C@H](C(=O)O)c4cc(O)cc(O)c4-c4cc3ccc4O)[C@H](O)c3ccc(c(Cl)c3)Oc3cc2cc(c3O[C@@H]2O[C@H](CO)[C@@H](O)[C@H](O)[C@H]2O[C@H]2C[C@](C)(N)[C@H](O)[C@H](C)O2)Oc2ccc(cc2Cl)[C@H]1O [Vancomycin] + CC1=C\[C@@H](O)CC(=O)Cc2nc(co2)C(=O)N2CCC=C2C(=O)O[C@H](C(C)C)[C@H](C)/C=C/C(=O)NC\C=C\1 [Virginiamycin M1]
Settings | Bliss interaction score
B. subtilis 168 | -0.0585
S. aureus DSM 20231 [2] | 0.0837
S. aureus Newman [3] | 0.0634
S. pneumoniae D39V [1] | 0.128

Settings | fitness
S. aureus DSM 20231 [5], first compound 0.1875 µg/mL, partner 0.0625 µg/mL | ≥ 1
S. aureus DSM 20231 [5], first compound 0.1875 µg/mL, partner 0.125 µg/mL | ≥ 1
S. aureus DSM 20231 [5], first compound 0.1875 µg/mL, partner 0.25 µg/mL | 0.998
S. aureus DSM 20231 [5], first compound 0.375 µg/mL, partner 0.0625 µg/mL | ≥ 1
S. aureus DSM 20231 [5], first compound 0.375 µg/mL, partner 0.125 µg/mL | ≥ 1
S. aureus DSM 20231 [5], first compound 0.375 µg/mL, partner 0.25 µg/mL | ≥ 1
S. aureus DSM 20231 [5], first compound 0.75 µg/mL, partner 0.0625 µg/mL | ≥ 1
S. aureus DSM 20231 [5], first compound 0.75 µg/mL, partner 0.125 µg/mL | ≥ 1
S. aureus DSM 20231 [5], first compound 0.75 µg/mL, partner 0.25 µg/mL | ≥ 1
S. aureus Newman [6], first compound 0.1875 µg/mL, partner 0.0625 µg/mL | 0.991
S. aureus Newman [6], first compound 0.1875 µg/mL, partner 0.125 µg/mL | 0.994
S. aureus Newman [6], first compound 0.1875 µg/mL, partner 0.25 µg/mL | 0.99
S. aureus Newman [6], first compound 0.375 µg/mL, partner 0.0625 µg/mL | ≥ 1
S. aureus Newman [6], first compound 0.375 µg/mL, partner 0.125 µg/mL | 0.988
S. aureus Newman [6], first compound 0.375 µg/mL, partner 0.25 µg/mL | 0.977
S. aureus Newman [6], first compound 0.75 µg/mL, partner 0.0625 µg/mL | ≥ 1
S. aureus Newman [6], first compound 0.75 µg/mL, partner 0.125 µg/mL | 0.995
S. aureus Newman [6], first compound 0.75 µg/mL, partner 0.25 µg/mL | 0.962
S. pneumoniae D39V [4], first compound 0.03125 µg/mL, partner 0.5 µg/mL | ≥ 1
S. pneumoniae D39V [4], first compound 0.03125 µg/mL, partner 1 µg/mL | ≥ 1
S. pneumoniae D39V [4], first compound 0.03125 µg/mL, partner 2 µg/mL | 0.982
S. pneumoniae D39V [4], first compound 0.0625 µg/mL, partner 0.5 µg/mL | 0.982
S. pneumoniae D39V [4], first compound 0.0625 µg/mL, partner 1 µg/mL | 0.97
S. pneumoniae D39V [4], first compound 0.0625 µg/mL, partner 2 µg/mL | 0.971
S. pneumoniae D39V [4], first compound 0.125 µg/mL, partner 0.5 µg/mL | 0.988
S. pneumoniae D39V [4], first compound 0.125 µg/mL, partner 1 µg/mL | 0.939
S. pneumoniae D39V [4], first compound 0.125 µg/mL, partner 2 µg/mL | 0.945
S. pneumoniae D39V [4], first compound 0.25 µg/mL, partner 2 µg/mL | 0.881

fitness, one replicate
Settings | partner 0.15 µg/mL | partner 0.3 µg/mL | partner 0.5 µg/mL | partner 1 µg/mL | partner 2 µg/mL
S. aureus DSM 20231 [5], first compound 0.1875 µg/mL | – | – | 0.766 | 0.687 | –
S. aureus DSM 20231 [5], first compound 0.375 µg/mL | – | – | 0.727 | 0.733 | –
S. aureus DSM 20231 [5], first compound 0.75 µg/mL | – | – | 0.795 | 0.791 | –
S. aureus Newman [6], first compound 0.1875 µg/mL | – | – | 0.913 | 0.98 | 0.883
S. aureus Newman [6], first compound 0.375 µg/mL | – | – | 0.887 | 0.97 | 0.861
S. aureus Newman [6], first compound 0.75 µg/mL | – | – | 0.815 | 0.93 | 0.903
S. pneumoniae D39V [4], first compound 0.125 µg/mL | ≥ 1 | ≥ 1 | – | – | –
S. pneumoniae D39V [4], first compound 0.25 µg/mL | 0.946 | 0.993 | 0.873 | 0.681 | –
S. pneumoniae D39V [4], first compound 0.5 µg/mL | 0.355 | 0.71 | 0.366 | 0.0772 | –
